Laboratory results as given in patent publication US20130102631A1, “NOVEL MICROBIOCIDAL DIOXIME ETHER DERIVATIVES” (SYNGENTA CROP PROTECTION LLC, priority 2010, published 2013).

Key:
[1] = system: Puccinia recondita f. sp. tritici; test: Puccinia recondita f. sp. tritici / wheat / leaf disc curative (brown rust); assay type: in vivo; settings: foliar, wheat leaf segments cv Kanzler, 200 ppm applied 1 day after inoculation, assessed 6-8 days after application
Method: Puccinia recondita f. sp. tritici/Wheat/Leaf Disc Curative (Brown Rust): Wheat leaf segments cv Kanzler were placed on agar in 24-well plates. The leaf segments were inoculated with a spore suspension of the fungus. The plates were stored in darkness at 19° C. and 75% relative humidity. The formulated test compound diluted in water was applied at an application rate of 200 ppm 1 day after inoculation. […]-2.508; 5.561; 2.561; E/E-2.208; 2.513; 2.559; 2.556; 2.555; 2.374; 2.552; 2.537; 2.519; 2.516; 2.514; […].002; 2.512; E/E-2.507

[2] = system: Phaeosphaeria nodorum (Septoria nodorum); test: Phaeosphaeria nodorum (Septoria nodorum) / wheat / leaf disc preventative (glume blotch); assay type: in vivo; settings: Parastagonospora nodorum, foliar, wheat leaf segments cv Kanzler, inoculated 2 days after application, assessed 5-7 days after application
Method in brief: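 Wheat cv Kanzler leaf segments on agar were sprayed with formulated compound at 200 ppm and inoculated with spores 2 days later. Incubation at 20 °C, 75% RH, 12/12 h light/dark; percent disease control versus untreated scored 5–7 days after application.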

Glomerella lagenarium = Glomerella lagenarium (Colletotrichum lagenarium) / liquid culture (anthracnose); assay type: cell-based; settings: Colletotrichum orbiculare; at ≦200 ppm, liquid culture PDB, inhibition of growth photometrically 3-4 days after application; read-out: control of Glomerella lagenarium
Method in brief: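 Glomerella lagenarium conidia in potato dextrose broth added to test compound supplied in DMSO in microtiter wells. Plates incubated at 24° C.; growth inhibition measured photometrically 3-4 days after application.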

[3] = system: Blumeria graminis f. sp. tritici (Erysiphe graminis f. sp. tritici); test: Blumeria graminis f. sp. tritici / wheat / leaf disc preventative (powdery mildew on wheat); assay type: in vivo; settings: foliar, wheat leaf segments cv. Kanzler, inoculated 1 day after application, assessed 6-8 days after application
Method in brief: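 Wheat cv. Kanzler leaf segments on agar sprayed with formulated compound at 200 ppm, inoculated 1 day later with powdery mildew, incubated at 20° C, 60% RH (24 h dark then 12 h/12 h). Percent disease control versus untreated scored 6-8 days after application.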

C/C(=N\OCC(C)(C)CO/N=C1\CCCc2ccc(C)nc21)c1ccc2ccccc2n1 [Compound 2.512]
≥ 80%: pest or weed control at 200 ppm [1] | pest or weed control at 200 ppm [2] | inhibition of growth at up to 200 µg/mL (Glomerella lagenarium) | pest or weed control at 200 ppm [3]

C=C(CO/N=C(\C)c1cccc(C)n1)CO/N=C1\CCCc2ccc(C)nc21 [E/E-3.002]
≥ 80%: pest or weed control at 200 ppm [1] | pest or weed control at 200 ppm [2] | inhibition of growth at up to 200 µg/mL (Glomerella lagenarium) | pest or weed control at 200 ppm [3]

Cc1ccc(O)c(/C=N/OCC(C)(C)CO/N=C2\CCCc3ccc(C)nc32)n1 [Compound 2.533]
≥ 80%: pest or weed control at 200 ppm [2] | inhibition of growth at up to 200 µg/mL (Glomerella lagenarium) | pest or weed control at 200 ppm [3]

C/C(=N\OCC(C)(C)CO/N=C1\CCCc2ccc(Cl)nc21)c1cc(C)cc(C)n1 [Compound 2.555]
≥ 80%: pest or weed control at 200 ppm [1] | pest or weed control at 200 ppm [2] | inhibition of growth at up to 200 µg/mL (Glomerella lagenarium) | pest or weed control at 200 ppm [3]

C/C(=N\OCC(C)(C)CO/N=C1\CCCc2ccc(C)nc21)c1cccc(C)n1 [E/E-2.002]
≥ 80%: pest or weed control at 200 ppm [1] | pest or weed control at 200 ppm [2] | inhibition of growth at up to 200 µg/mL (Glomerella lagenarium) | pest or weed control at 200 ppm [3]

Cc1cccc(/C(=N/OCC(C)(C)CO/N=C2\CCCc3ccc(C)nc32)c2ccccc2)n1 [E/E-2.474]
≥ 80%: pest or weed control at 200 ppm [1] | pest or weed control at 200 ppm [2] | inhibition of growth at up to 200 µg/mL (Glomerella lagenarium) | pest or weed control at 200 ppm [3]

C/C(=N/OCC(C)(C)CO/N=C1\CCCc2ccc(C)nc21)c1ccccn1 [Compound 2.519]
≥ 80%: pest or weed control at 200 ppm [1] | pest or weed control at 200 ppm [2] | inhibition of growth at up to 200 µg/mL (Glomerella lagenarium) | pest or weed control at 200 ppm [3]

CC/C(=N\OCC(C)(C)CO/N=C1\CCCc2ccc(C)nc21)c1ccccn1 [Compound 2.516]
≥ 80%: pest or weed control at 200 ppm [1] | pest or weed control at 200 ppm [2] | inhibition of growth at up to 200 µg/mL (Glomerella lagenarium) | pest or weed control at 200 ppm [3]

C/C(=N\OCC(C)(C)CO/N=C1\CCCc2c1nc1ccccc1c2C)c1cc(C)cc(C)n1 [Compound 2.561]
≥ 80%: pest or weed control at 200 ppm [1] | pest or weed control at 200 ppm [2] | inhibition of growth at up to 200 µg/mL (Glomerella lagenarium) | pest or weed control at 200 ppm [3]

C/C(=N\OCC1(CO/N=C2\CCCc3c2nc2ccccc2c3C)CC1)c1cc(C)cc(C)n1 [Compound 5.561]
≥ 80%: pest or weed control at 200 ppm [1] | pest or weed control at 200 ppm [2] | inhibition of growth at up to 200 µg/mL (Glomerella lagenarium) | pest or weed control at 200 ppm [3]

C/C(=N\OCC(C)(C)CO/N=C1\CCCc2ccc(C)nc21)c1cccc(Br)n1 [E/E-2.508]
≥ 80%: pest or weed control at 200 ppm [1] | pest or weed control at 200 ppm [2] | inhibition of growth at up to 200 µg/mL (Glomerella lagenarium)

C/C(=N\OCC(C)(C)CO/N=C1\CCCc2ccc(-c3cccc(C)n3)nc21)c1cc(C)cc(C)n1 [Compound 2.559]
≥ 80%: pest or weed control at 200 ppm [1] | pest or weed control at 200 ppm [2] | inhibition of growth at up to 200 µg/mL (Glomerella lagenarium) | pest or weed control at 200 ppm [3]

COc1cccc(/C(C)=N/OCC(C)(C)CO/N=C2\CCCc3ccc(C)nc32)n1 [Compound 2.374]
≥ 80%: pest or weed control at 200 ppm [1] | pest or weed control at 200 ppm [2] | inhibition of growth at up to 200 µg/mL (Glomerella lagenarium) | pest or weed control at 200 ppm [3]

C/C(=N\OCC(C)(C)CO/N=C1\CCCc2ccc(Oc3ccccc3)nc21)c1cc(C)cc(C)n1 [Compound 2.556]
≥ 80%: pest or weed control at 200 ppm [1] | pest or weed control at 200 ppm [2] | inhibition of growth at up to 200 µg/mL (Glomerella lagenarium) | pest or weed control at 200 ppm [3]

C/C(=N\OCC(C)(C)CO/N=C1\CCCc2ccc(C)nc21)c1ccc2c(n1)CCCC2 [Compound 2.513]
≥ 80%: pest or weed control at 200 ppm [1] | pest or weed control at 200 ppm [2] | inhibition of growth at up to 200 µg/mL (Glomerella lagenarium) | pest or weed control at 200 ppm [3]

C/C(=N\OCC(C)(C)CO/N=C1\CCCc2ccc(C)nc21)c1cc(C)cc(C)n1 [E/E-2.168]
≥ 80%: pest or weed control at 200 ppm [1] | pest or weed control at 200 ppm [2] | inhibition of growth at up to 200 µg/mL (Glomerella lagenarium) | pest or weed control at 200 ppm [3]

Cc1ccc2c(n1)/C(=N/OCC(C)(C)CO/N=C/c1ccc3ccccc3n1)CCC2 [E/E-2.507]
≥ 80%: pest or weed control at 200 ppm [1] | pest or weed control at 200 ppm [2] | inhibition of growth at up to 200 µg/mL (Glomerella lagenarium)

C/C(=N\OCCCO/N=C1\CCCc2ccc(C)nc21)c1cccc(-c2ccccc2)n1 [Compound 2.514]
≥ 80%: pest or weed control at 200 ppm [1] | pest or weed control at 200 ppm [2] | inhibition of growth at up to 200 µg/mL (Glomerella lagenarium) | pest or weed control at 200 ppm [3]

Cc1ccc2c(n1)/C(=N/OCC(C)(C)CO/N=C/c1cccc(Oc3ccccc3)n1)CCC2 [Compound 2.530]
≥ 80%: pest or weed control at 200 ppm [2] | inhibition of growth at up to 200 µg/mL (Glomerella lagenarium) | pest or weed control at 200 ppm [3]

C/C(=N\OCC1(CO/N=C2\CCCc3ccc(C)nc32)CC1)c1cc(C)cc(C)n1 [E/E-5.167]
≥ 80%: pest or weed control at 200 ppm [1] | pest or weed control at 200 ppm [2] | inhibition of growth at up to 200 µg/mL (Glomerella lagenarium) | pest or weed control at 200 ppm [3]
